System: double transgenic mice over-expressing human APP (V717I) and human PS1 (A242E)
Assay: Amyloid plaque loading (thioflavin S staining of brain sections) in double transgenic mice model of Alzheimer's disease
Format: in vivo
Conditions: vs control
Method: Mice over-expressing human APP with the London mutation (V717I) and human PS1 bearing the A242E mutation (APP and PS1 stand for amyloid protein precursor and preseniline 1, respectively) were used.
Three molecules were evaluated on these double transgenic mice (6-month old): 3-Propyl-Clip-Phen (molecule B in the histogram below), Cyclo-bi-Phen (molecule G) and Clioquinol (molecule W) (C stands for control, only DMSO diluted in water).
The molecules were initially diluted in DMSO in the presence of 2.6 equivalents of HCl and then in water and the animals were treated by i.p. injection with the two Phen derivatives at 5 mg/kg or at 10 mg/kg for Clioquinol, three times per week (monday, Wednesday and friday) during 9 consecutive weeks. 9 animals were treated for each drugs (control also included 9 animals).
This method is used to quantify the “old” plaques.

[1] = 5 mg/kg i.p. three times per week for 9 weeks

With `c1cnc2c(c1)ccc1cc(OCCCOc3cnc4c(ccc5cccnc54)c3)cnc12` [3-Propyl-Clip-Phen] the plaque loading increase [1] was 16%.
`Oc1c(I)cc(Cl)c2cccnc12` [Clioquinol, 5-chloro-7-iodo-8-hydroxyquinoline] gave a plaque loading reduction (10 mg/kg i.p. three times per week for 9 weeks) of 28%.
In the case of `c1nc2c3ccc4cc(cnc42)OCCCOc2cnc4c(ccc5cc(cnc54)OCCCOc1c3)c2` [Cyclo-bi-Phen], the plaque loading reduction [1] is reported as 38%.
